Results published in ChEMBL document CHEMBL1201862, “PubChem BioAssay data set” (2004).
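Compound exposure: 48 hours, 5 concentrations, 96-well plates. GI50 = concentration required for 50% inhibition of growth.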 Activity calls are given as the source filed them. Cut-off read from the data, not from the text of the source: active = GI50 up to about 1.1 µM and inactive = higher.

How the values were obtained:
Test in all cases: NCI anticancer screen, dose series, 48 h
IGROV-1 = test system: IGROV-1
SF-539 = test system: SF-539
NCI-H226 = test system: NCI-H226
HT-29 = test system: HT-29
UACC-62 = test system: UACC-62
NCI-H460 = test system: NCI-H460
BT-549 = test system: BT-549
COLO 205 = test system: COLO 205
HCT-116 = test system: HCT-116
MCF7 = test system: MCF7
NCI-H23 = test system: NCI-H23
A498 = test system: A498
NCI-H522 = test system: NCI-H522
EKVX = test system: EKVX
PC-3 = test system: PC-3
MDA-MB-435 = test system: MDA-MB-435
OVCAR-4 = test system: OVCAR-4
HOP-92 = test system: HOP-92
SN12C = test system: SN12C
OVCAR-8 = test system: OVCAR-8

Measured: GI50

O=C(Nc1ccc(Cl)cc1)c1cc(S(=O)(=O)Nc2n[nH]c(Nc3ccc4ccccc4c3)n2)c(SSc2cc(Cl)c(C(=O)Nc3ccc(Cl)cc3)cc2S(=O)(=O)Nc2n[nH]c(Nc3ccc4ccccc4c3)n2)cc1Cl
inactive: IGROV-1 21.7 µM | SF-539 23.6 µM | NCI-H226 21.7 µM | HT-29 20.6 µM | UACC-62 22.9 µM | NCI-H460 26.7 µM | BT-549 24.4 µM | COLO 205 18.4 µM | HCT-116 18.6 µM | MCF7 25.8 µM | NCI-H23 24.5 µM | A498 23.6 µM | NCI-H522 22.6 µM | EKVX 42.9 µM | PC-3 24.4 µM | MDA-MB-435 30.3 µM | OVCAR-4 28 µM | HOP-92 28.2 µM | SN12C 22.5 µM | OVCAR-8 27 µM

CSCCC(C(=O)O)N(C)C (stereo not given)
inactive: IGROV-1 > 100 µM | SF-539 > 100 µM | NCI-H226 > 100 µM | HT-29 > 100 µM | UACC-62 > 100 µM | NCI-H460 > 100 µM | BT-549 > 100 µM | COLO 205 > 100 µM | HCT-116 > 100 µM | MCF7 > 100 µM | NCI-H23 > 100 µM | A498 > 100 µM | NCI-H522 > 100 µM | EKVX > 100 µM | PC-3 > 100 µM | MDA-MB-435 > 100 µM | OVCAR-4 > 100 µM | HOP-92 > 100 µM | SN12C > 100 µM | OVCAR-8 > 100 µM

COc1ccc2c(=O)c3ccoc3n(CC=C(C)C)c2c1 [ACROPHYLLINE]
inactive: IGROV-1 74.5 µM | SF-539 97.1 µM | NCI-H226 > 87.9 µM | HT-29 47.2 µM | UACC-62 48.4 µM | NCI-H460 50.2 µM | BT-549 35.4 µM | COLO 205 > 85.3 µM | HCT-116 52.7 µM | MCF7 33.7 µM | NCI-H23 46.1 µM | A498 > 63.2 µM | NCI-H522 2.65 µM | EKVX 43.9 µM | PC-3 36.4 µM | MDA-MB-435 75.9 µM | OVCAR-4 44.7 µM | HOP-92 > 26.2 µM | SN12C > 100 µM | OVCAR-8 39.5 µM

COc1ccc(C(c2ccc3c(c2)OCO3)N2C(=O)CCC2C(=O)O)cc1 (stereo not given)
inactive: IGROV-1 > 100 µM | SF-539 > 100 µM | NCI-H226 > 100 µM | HT-29 > 100 µM | UACC-62 > 100 µM | NCI-H460 > 100 µM | BT-549 > 100 µM | COLO 205 > 100 µM | HCT-116 > 100 µM | MCF7 > 100 µM | NCI-H23 > 100 µM | A498 > 100 µM | NCI-H522 > 100 µM | EKVX > 100 µM | PC-3 > 100 µM | MDA-MB-435 > 100 µM | OVCAR-4 > 100 µM | HOP-92 > 100 µM | SN12C > 100 µM | OVCAR-8 > 100 µM

Cc1ccccc1NC(=O)O/N=C(\Cl)C(C)C
inactive: IGROV-1 9.42 µM | SF-539 9.08 µM | NCI-H226 16 µM | HT-29 5.56 µM | UACC-62 14.9 µM | NCI-H460 17.8 µM | BT-549 5.32 µM | COLO 205 1.75 µM | HCT-116 2.18 µM | MCF7 7.98 µM | NCI-H23 16.7 µM | A498 17.9 µM | NCI-H522 1.68 µM | EKVX 2.29 µM | PC-3 17.1 µM | MDA-MB-435 13.2 µM | OVCAR-4 8.45 µM | HOP-92 2.28 µM | SN12C 1.62 µM | OVCAR-8 17.5 µM
